Results reported in US5173504A, “Bacteriochlorophyll-a derivatives useful in photodynamic therapy” (Health Research, Inc., priority 1991, dated 1992).

Columns and labels:
[1] = Beems et al., Photochemistry and Photobiology (1987); cited from earlier work
[2] = cutaneous photosensitivity: response of the foot of the treated mice; type: in vivo; settings: FIG. 3
Procedure: One of the undesirable side effects of photodynamic therapy using certain compounds is cutaneous photosensitivity unrelated to the target biological substrate. Accordingly, the effect of the treatment on the photosensitivity of the foot of the treated mice was measured. The response of the foot was measured as erythema and/or edema (or loss of skin or further damage).

[3] = tested on: tumors approximately 1 cm in depth; assay: light penetration: necrotic depth in tumors; type: in vivo; settings: 20 mg/kg, irradiation after 1 hour, 270 J/cm^2 at 780 nm; histology the day following
Procedure: Comparison was made using bchla at 20 mg/kg with irradiation after 1 hour at 270 J/cm^2 at 780 nm, and DHE at 5 mg/kg after 1 hour at 270 J/cm^2 at 630 nm. Animals with tumors approximately 1 cm in depth were used in the comparison. Histological sections were obtained the day following treatment, fixed and stained.

[4] = uptake and clearance in tumor (extraction, HPLC); type: in vivo, DBA/2 Ha Mice
Procedure: (§1) Uptake and clearance of bchla in tumor and liver were measured by extraction of the tumor or liver tissue with 1:1MeOH:CH2 Cl2, followed by HPLC analysis.

[5] = uptake and clearance in liver (extraction, HPLC); type: in vivo, DBA/2 Ha Mice
Procedure: as §1

stability of bchla = type: physicochemical
Text: Bchla is readily obtained by extraction from bacterial sources, and is available commercially from Porphyrin Products, Logan, UT.

[6] = light absorption of bchla; type: physicochemical
Text: Bchla is essentially identical to the chlorophyll-a of higher plants except that ring B is in the dihydro form and the vinyl group in ring A is converted to an acetyl group. The wavelength absorption maximum of bchla is about 780 nm and the extinction coefficient in this region is quite high (E780= 75,000). This long wavelength absorption is advantageous because light penetrates tissues 2-3 times more effectively at a wavelength nearly 800 nm versus lower wavelengths, e.g., 630 nm.
Bacteriochlorophyll-a, obtained at >90% purity from Porphyrin Products (Logan, UT) was dissolved at a concentration of 5 mg/ml in Tween-80 (Sigma) by stirring for several hours or overnight. The resulting solution was mixed with 9 volumes of Hank's buffer solution with agitation until all of the detergent solution was dissolved. Any remaining particulate matter is removed by filtration and the concentration of the final solution is determined spectrophotometrically using a 1:100 dilution in distilled water (OD780= 87.3 for 1 mg/ml of concentrate). In general, if the initial solution of bchla is conducted carefully, the resulting formulation has a concentration of bchla of 0.5 mg/ml.

SMT-F tumors = assay: tumor response to photodynamic treatment in mice transplanted with SMT-F tumors; type: in vivo, DBA2/HaD mice
Procedure: DBA2/HaD mice were transplanted with SMT-F tumors. When the subcutaneous tumors reached 4.5-5.5 mm in diameter, the mice, in groups of five, were injected intravenously with the bchla solution of Example 1 in doses of 5-30 mg/kg. At a time 1 hour-5 days later, the tumor, previously shaved and depiliated, plus a margin of 2-3 mm was exposed to radiation of a wavelength in the range 630-800 nm using a Spectraphysics argon dye laser with Exciton LDS751 dye, tunable over the 700-800 nm range or a diode laser--e.g., Spectra Diode emitting in the 750-850 nm range or a Xenon arc lamp filtered with an interference filter to pass 90% of the 700 nm light ±60 nm at dose rates of 75-150 mw/cm^2. When the Xenon system was used, mild hyperthermia resulted (42° C. at 160 mW/cm^2). It is not known whether this temperature rise acts synergistically with bchla as has been shown with HpD and its active fraction.
Tumor response is shown in the table of FIG. 1 for the seventh day after light treatment which indicates regression, and at a time point at least 30 days after light treatment, which would indicate cure, if there had been no regrowth.

SMILES	water solubility compared to bacteriochlorophyll-a [1]	sensitivity of the tumor and the skin of the foot over time [2]	necrotic depth [3]	composition of material in tumor ([4]; 24 hours after injection)	composition of material in tumor ([4]; 48 hours after injection)	time of partial conversion to bacteriopheophytin in tumor ([4]; tumor) [h]	time of partial conversion to bacteriopheophytin in liver [5] [h]	oxidation stability (stability of bchla)	stability in vivo (stability of bchla; in vivo)	loss of magnesium ion in dilute acid (stability of bchla; presence of dilute acid)	wavelength absorption maximum [6]	extinction coefficient (E780) ([6]; 780 nm)	OD780 ([6]; for 1 mg/ml of concentrate, Tween-80/Hank's buffer formulation, measured at 1:100 dilution in distilled water)	tumor response (SMT-F tumors; 5 mg/kg i.v., irradiated after 2 hours, 670-790 nm range)	tumor response (SMT-F tumors; 10 mg/kg i.v., irradiated 24 hours after injection, 680-780 nm)
CCC1c2cc3[nH]c4c(c3C)C(=O)C(C(=O)OC)c4c3nc(cc4[nH]c(cc(n2)C1C)c(C(C)=O)c4C)C(C)C3CCC(=O)O (stereo not shown) [bacteriochlorin-a]	enhanced water solubility	–	–	–	–	–	–	–	–	–	–	–	–	–	–
CCC1C2=Cc3c(C)c4c5[n]3[Mg][n]3c(c(C)c(C(C)=O)c3=CC(=N2)C1C)=CC1=NC(=C5C(C(=O)OC)C4=O)C(CCC(=O)O)C1C (stereo not shown) [bacteriochloro-phyllin-a]	enhanced water solubility	–	–	–	–	–	–	–	–	–	–	–	–	–	–
CCC1C2=Cc3c(C)c4c5[n]3[Mg][n]3c(c(C)c(C(C)=O)c3=CC(=N2)C1C)=CC1=NC(=C5C(C(=O)OC)C4=O)C(CCC(=O)OCC=C(C)CCCC(C)CCCC(C)CCCC(C)C)C1C (stereo not shown) [bchla, Bacteriochlorophyll-a]	–	the sensitivity of the tumor and the skin of the foot declined concomitantly	approximately 9 mm	demetallized but still contains phytyl	mainly material without phytyl and without Mg	≥ 24	2	readily oxidized, especially in the presence of light	sufficiently stable in vivo to be an effective phototherapeutic agent	the magnesium ion is readily removed in the presence of dilute acid	about 780 nm	75,000	87.3	good response	good response
